Laboratory results reported in PMC5866846 (Archives of Toxicology, 2017).

Experiments:
[1] = Formation kinetics of Tam-Bis, (Z)- and (E)-Met E in HLM with increasing substrate concentrations; type: in vitro ADME, human; settings: substrate 1 to 50 µM, Michaelis-Menten
Method: (§1) The reaction was started by adding a NADPH regenerating system (5 mM MgCl2, 5 mM glucose-6-phosphate, 0.5 mM NADP^+ and 10 U glucose-6-phosphate-dehydrogenase in 100 mM sodium phosphate buffer pH 7.4) to the samples and immediately put in a 37 °C water bath for 30 min. The reaction was stopped with the same volume of acetonitrile (ACN) containing 1% of acetic acid together with the corresponding deuterated internal standards. Regarding incubations with Supersomes™ containing UGTs, 5 µg of protein was incubated with 250 mM MgCl2 and 2.5 ng of alamethicin for 30 min on ice, followed by 10 min at 37 °C in a water bath. Subsequently, the Supersomes™ were incubated with 10 µM of substrates (Tam-Bis, (E)- and (Z)-Met E) and the glucuronidation was started by addition of 10 mM of uridine 5′-diphospho-glucuronic acid to the samples in a water bath at 37 °C for 30 min. The reaction was stopped as described above. Metabolites were analyzed by HPLC-ESI-MS/MS.
For the assessment of formation kinetics of Tam-Bis, (E)- and (Z)-Metabolite E, HLM were incubated with increasing substrate concentrations ranging from 1 to 50 µM as described above. As control for each concentration a sample without NADPH-regenerating system was prepared. […]

[2] = tested on: upcyte hepatocytes 653-03 and 653-03 2D6; test: Tam metabolism in upcyte hepatocytes, cell strain not distinguished; type: in vitro ADME, human; settings: 1 µM Tam, all time points
Method: The medium was replaced every 2–3 days. […].
The culture medium was collected after 24, 48, 72, 96 and 144 h followed by metabolite measurements using HPLC-ESI-MS/MS.
Protein was precipitated by the addition of ACN containing 1% of acetic acid and the corresponding deuterated internal standards to the same volume of the sample followed by centrifugation at 20.000 g for 15 min at RT. […] Analytes were separated on a Zorbax Eclipse Plus C18 column (1.8 µm, 100 × 2.1 mm, Agilent technologies) and detected on a 6460 triple quadrupole mass spectrometer (Agilent technologies) in positive ESI MRM mode. Glucuronides of estrogen-like metabolites were detected separately via MS/MS-measurements in negative ESI MRM mode.
[…]. […] […].

[3] = Formation of Met E and Tam-Bis from precursors in pooled human liver microsomes with and without NADPH-regenerating system; type: in vitro ADME; settings: DM-Tam, DDM-Tam, 50 µM, pooled HLM
Method: as §1, with “Subsequently, the Supersomes™ were incubated with 10 µM of substrates (Tam-Bis, (E)- and (Z)-Met E) and the glucuronidation was started by addition of 10 mM of uridine 5′-diphospho-glucuronic acid to the samples in a water bath at 37 °C for 30 min. The reaction was stopped as described above.” left out
Protein was precipitated by the addition of ACN containing 1% of acetic acid and the corresponding deuterated internal standards to the same volume of the sample followed by centrifugation at 20.000 g for 15 min at RT. […] Analytes were separated on a Zorbax Eclipse Plus C18 column (1.8 µm, 100 × 2.1 mm, Agilent technologies) and detected on a 6460 triple quadrupole mass spectrometer (Agilent technologies) in positive ESI MRM mode. Glucuronides of estrogen-like metabolites were detected separately via MS/MS-measurements in negative ESI MRM mode. […]

CYP1A2 = CYP1A2 activity in upcyte hepatocytes after treatment (probe substrate cocktail); settings: human, EC50 of induction of CYP1A2 activity, 50 pM to 5 µM
Method: (§2) Cells were cultivated in hepatocyte culture medium at 37 °C and 5 °% CO2 in a humidified incubator. Before starting experiments, cells were cultivated in hepatocyte culture medium containing 0.5% (v/v) DMSO (Preculture medium) for 5 days (density of 0.8 × 10^4 cells/cm^2) and were subcultivated in high-performance medium containing 0.1% (v/v) DMSO (Metabolism conditioning medium) for 3–5 days (density of 1.6 × 10^5 cells/cm^2, confluence). The medium was replaced every 2–3 days.
(§3) In HLM and supersome™ incubations the formation rate is given as nmol µg^−1 min^−1 and fmol pmol^−1 min^−1, respectively, and was calculated as the mean ± SD. […] The intrinsic Clearance (Clint) was given as Vmax/Km ratio. […] Activity of CYP enzymes in induction assays is given as the fold-change (mean ± SD) compared to the corresponding DMSO-treated control. […] Gene expression patterns of treated cells are given as fold-change compared to the corresponding DMSO-treated control samples, as described above. […] In induction and inhibition experiments corresponding EC50 and IC50 values were calculated by nonlinear regression. In all experiments a level of probability (p) ≤ 0.05 for statistical testing was considered significant.
(§4) As control 0.05 % DMSO was used. The basal CYP activity and induction of CYP activity compared to the DMSO control were measured via HPLC-ESI-MS/MS.

[4] = tested on: single CYP isoenzymes (Supersomes); test: Formation of estrogen-like metabolites in Supersomes specific for single CYP isoenzymes; type: in vitro ADME; settings: 50 µM precursors
Excerpt: Supersomes™ were obtained from Corning Incorporated, Wiesbaden, Germany, and were specific for CYP isoenzymes CYP1A1, 1A2, 2A6, 2B6, 2C8, 2C9, 2C19, 2D6, 3A4, 3A5 and 19A1. All Supersomes™ contained oxidoreductase. Cytochrome b5 was present in the Supersomes™ of CYP2A6, 2B6, 2C8, 2C9, 3A4 and 3A5. UDP-glucuronosyltransferases (UGT)containing Supersomes™ were specific for the following isoenzymes: 1A1, 1A2, 1A3, 1A4, 1A6, 1A7, 1A8, 1A9, 1A10, 2B4, 2B7, 2B10, 2B15 and 2B17.
The reaction was started by adding a NADPH regenerating system (5 mM MgCl2, 5 mM glucose-6-phosphate, 0.5 mM NADP^+ and 10 U glucose-6-phosphate-dehydrogenase in 100 mM sodium phosphate buffer pH 7.4) to the samples and immediately put in a 37 °C water bath for 30 min. The reaction was stopped with the same volume of acetonitrile (ACN) containing 1% of acetic acid together with the corresponding deuterated internal standards. […] Metabolites were analyzed by HPLC-ESI-MS/MS.
Protein was precipitated by the addition of ACN containing 1% of acetic acid and the corresponding deuterated internal standards to the same volume of the sample followed by centrifugation at 20.000 g for 15 min at RT. […] Glucuronides of estrogen-like metabolites were detected separately via MS/MS-measurements in negative ESI MRM mode.

CYP2C19 = CYP2C19 (Homo sapiens, UniProt P33261); test: CYP2C19 activity in upcyte hepatocytes after treatment (probe substrate cocktail); type: cell-based; parameters: host or cells: upcyte hepatocytes 653-03 and 653-03 #138 (653-03 2D6); settings: human, probe S-mephenytoin (100 µM), upcyte hepatocytes, 50 pM to 5 µM, read-out: EC50 of induction of CYP2C19 activity
Method: as §2, §3, §4

CYP2B6 = CYP2B6 activity in upcyte hepatocytes after treatment (probe substrate cocktail)
Method: as §2, §3, §4

estrogen receptor = tested on: estrogen receptor; parameters: method as in Johnson et al. [1989]; Murphy et al. [1990]; settings: in vitro, estrogen-dependent breast cancer cell lines; ref Johnson et al. [1989]; Murphy et al. [1990]; cited from earlier work
CYP3A4 [5] = test: CYP3A4 activity in upcyte hepatocytes after treatment (probe substrate cocktail)
Method: as §2, §3, §4

CYP2C9 = CYP2C9 (Homo sapiens, UniProt P11712); test: CYP2C9 activity in upcyte hepatocytes after treatment (probe substrate cocktail); type: cell-based; parameters: host or cells: upcyte hepatocytes 653-03 and 653-03 #138 (653-03 2D6); settings: 5 µM, 72 h
Method: as §2, §3, §4

CYP2C8 = molecular target: T1, CYP2C8 (Homo sapiens, UniProt P10632); test: CYP2C8 activity in upcyte hepatocytes after treatment (probe substrate cocktail); type: cell-based; parameters: host or cells: upcyte hepatocytes 653-03 and 653-03 #138 (653-03 2D6); settings: human, probe amodiaquine (5 µM), upcyte hepatocytes, 50 pM to 5 µM, read-out: EC50 of induction of CYP2C8 activity
T1 sequence (P10632 1-490): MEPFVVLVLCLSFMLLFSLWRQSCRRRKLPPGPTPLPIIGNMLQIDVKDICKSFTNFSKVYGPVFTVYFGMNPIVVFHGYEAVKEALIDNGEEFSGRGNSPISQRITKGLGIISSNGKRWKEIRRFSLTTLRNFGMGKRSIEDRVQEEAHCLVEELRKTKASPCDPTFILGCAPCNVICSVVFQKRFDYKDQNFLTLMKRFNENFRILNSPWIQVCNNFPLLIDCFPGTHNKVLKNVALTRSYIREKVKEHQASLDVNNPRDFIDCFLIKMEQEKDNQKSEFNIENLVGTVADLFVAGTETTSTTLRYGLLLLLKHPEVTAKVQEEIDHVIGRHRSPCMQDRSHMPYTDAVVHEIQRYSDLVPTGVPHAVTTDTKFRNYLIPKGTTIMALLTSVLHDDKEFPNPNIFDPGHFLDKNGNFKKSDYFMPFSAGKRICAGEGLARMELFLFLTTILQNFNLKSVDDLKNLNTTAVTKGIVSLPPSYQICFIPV
Method: as §2, §3, §4

CYP3A4 gene expression = CYP3A4 gene expression in upcyte hepatocytes (Fluidigm RT-PCR)
Excerpt: (§5) Total RNA was isolated from cells using the Direct-zol™ RNA MiniPrep kit (Zymo Research Corp., Irvine, California). cDNA was synthesized using TaqMan Reverse Transcription Reagents (Life technologies, Applera GmbH, Darmstadt, Germany) and the expression of 25 genes representative of phase I and phase II drug metabolism and transport was quantified by Fluidigm’s BioMark HD high-throughput quantitative chip platform (Fluidigm Corporation, San Francisco, USA). For relative gene expression analysis, the delta-delta-Ct (ΔΔCt) method was used: the Ct values of the target mRNA were first normalized to those of the endogenous control glyceraldehyde-3-phosphate dehydrogenase (GAPDH) followed by dividing values of experimental samples by their corresponding DMSO-treated controls to calculate the x-fold changes of mRNA expression.
as §3, §4

SULT1B1 gene expression = SULT1B1 gene expression in upcyte hepatocytes (Fluidigm RT-PCR); type: cell-based, human; settings: phenobarbital 2 mM, 72 h; 'up to' = strongest decrease
NAT1 gene expression = NAT1 gene expression in upcyte hepatocytes (Fluidigm RT-PCR); type: cell-based, human; settings: phenobarbital 2 mM, 72 h; 'up to' = strongest decrease
SLC22A7 gene expression = SLC22A7 gene expression in upcyte hepatocytes (Fluidigm RT-PCR); type: cell-based, human; settings: phenobarbital 2 mM, 72 h
Excerpt: as §5
(§6) In HLM and supersome™ incubations the formation rate is given as nmol µg^−1 min^−1 and fmol pmol^−1 min^−1, respectively, and was calculated as the mean ± SD. […] The intrinsic Clearance (Clint) was given as Vmax/Km ratio. […] In induction and inhibition experiments corresponding EC50 and IC50 values were calculated by nonlinear regression. […]
as §4

CYP2E1 gene expression = CYP2E1 gene expression in upcyte hepatocytes (Fluidigm RT-PCR); type: cell-based, human; settings: phenobarbital 2 mM, 72 h; 'up to' = strongest decrease
Excerpt: (§7) Differences between induced and control samples were compared using Welch’s t-test (GraphPad Prism, version 5.04), when the fold-change was considered biologically relevant (1.5-fold increase or decrease in fold-changes) and corrected for multiple testing according to Bonferroni. […] An unpaired t-test assuming unequal variances was used for testing of differences in the expression patterns, when the fold-change was considered biologically relevant (1.5-fold increase or decrease in fold-changes) and corrected using Bonferroni adjustments.
(§8) As control 0.05 % DMSO was used.

CYP2C19 gene expression = CYP2C19 gene expression in upcyte hepatocytes (Fluidigm RT-PCR); type: cell-based, human; settings: phenobarbital 2 mM, 72 h
Excerpt: as §7, §8

CYP2C8 gene expression = CYP2C8 gene expression in upcyte hepatocytes (Fluidigm RT-PCR); type: cell-based, human; settings: phenobarbital 2 mM, 72 h; 'up to' = strongest decrease
Excerpt: as §7, §8

SLCO1B1 gene expression = SLCO1B1 gene expression in upcyte hepatocytes (Fluidigm RT-PCR); type: cell-based, human; settings: phenobarbital 2 mM, 72 h
Excerpt: as §5, §6, §4

CYP3A4 [6] = settings: hepatocytes
UGT1A1 gene expression = UGT1A1 gene expression in upcyte hepatocytes (Fluidigm RT-PCR); type: cell-based, human; settings: phenobarbital 2 mM, 72 h, both strains
Excerpt: as §5, §6, §4

CYP2C9, sequence (P11712 whole entry): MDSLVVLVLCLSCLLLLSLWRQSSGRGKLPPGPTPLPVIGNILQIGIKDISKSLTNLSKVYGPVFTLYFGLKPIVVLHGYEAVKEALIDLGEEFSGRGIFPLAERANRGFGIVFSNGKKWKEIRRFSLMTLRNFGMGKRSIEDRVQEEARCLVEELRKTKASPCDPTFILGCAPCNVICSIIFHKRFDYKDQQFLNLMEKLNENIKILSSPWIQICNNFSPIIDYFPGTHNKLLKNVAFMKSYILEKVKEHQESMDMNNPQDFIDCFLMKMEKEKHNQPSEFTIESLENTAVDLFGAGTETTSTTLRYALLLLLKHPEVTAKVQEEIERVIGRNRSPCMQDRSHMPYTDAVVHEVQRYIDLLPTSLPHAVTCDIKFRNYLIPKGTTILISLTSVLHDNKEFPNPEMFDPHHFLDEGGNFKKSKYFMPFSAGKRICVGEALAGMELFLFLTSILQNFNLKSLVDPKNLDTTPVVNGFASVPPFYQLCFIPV
CYP2C19, sequence (P33261 whole entry): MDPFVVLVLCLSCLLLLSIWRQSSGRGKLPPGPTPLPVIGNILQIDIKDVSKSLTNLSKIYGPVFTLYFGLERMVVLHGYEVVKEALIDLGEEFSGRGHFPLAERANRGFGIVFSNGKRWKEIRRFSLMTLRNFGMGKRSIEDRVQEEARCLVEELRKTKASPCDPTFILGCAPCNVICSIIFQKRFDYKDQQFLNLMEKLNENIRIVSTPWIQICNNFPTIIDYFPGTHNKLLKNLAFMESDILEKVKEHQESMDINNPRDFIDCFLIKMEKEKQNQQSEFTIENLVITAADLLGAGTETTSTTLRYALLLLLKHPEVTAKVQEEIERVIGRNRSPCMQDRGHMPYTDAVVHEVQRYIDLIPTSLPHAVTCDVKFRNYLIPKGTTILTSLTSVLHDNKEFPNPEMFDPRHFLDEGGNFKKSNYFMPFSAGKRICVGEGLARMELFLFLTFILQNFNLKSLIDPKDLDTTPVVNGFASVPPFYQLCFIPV

Structure (SMILES): CCC(=C(c1ccccc1)c1ccc(O)cc1)c1ccccc1 [(E)-Met E, 4-[1,2-diphenylbut-1-en-1-yl]phenol]
- V max, Bisphenol formation [1]: 8.1 pmol/mg/min
- Km ([1]; read-out: Km, Bisphenol formation): 10.4 µM
- concentration of the (E)-isomer relative to (Z)-Met E [2]: about 10%
- formation rate of the (E)-isomer compared to (Z)-Met E [3]: approximately 10%
- EC50 at 72 h (CYP1A2): > 5 µM
- formation rates lower than those of the (Z)-isomer [4]: approximately 10 times
- EC50 at 72 h (CYP2C19): > 5 µM
- EC50 at 72 h (CYP2B6; human, probe bupropion (25 µM)): > 5 µM
- agonism regarding estrogen-regulated mRNA expression (estrogen receptor): full agonists
- induction of CYP3A4 activity compared to DMSO control (CYP3A4 [5]; 5 µM, 72 h, parental and derived cell line): weakly induced
- EC50 at 72 h (CYP3A4 [5]; human, probe atorvastatin (35 µM), EC50 of induction of CYP3A4 activity, upcyte hepatocytes, 72 h, 50 pM to 5 µM): 0.277 µM
- induction of CYP2C9 activity (CYP2C9): weakly induced
- EC50 at 72 h (CYP2C8): > 5 µM
- CYP3A4 gene expression, induction vs DMSO control (CYP3A4 gene expression; 5 µM, 72 h, both cell strains): up to 5.6 fold

Structure (SMILES): CCC1(c2ccccc2)C(=O)NC(=O)NC1=O [PB, phenobarbital]
- SULT1B1 gene expression, down regulated to x-fold of control (SULT1B1 gene expression): up to 0.5 fold
- NAT1 gene expression, down regulated to x-fold of control (NAT1 gene expression): up to 0.5 fold
- induction of CYP2B6 activity (CYP2B6; phenobarbital 2 mM, 72 h, both cell lines): induced
- SLC22A7 gene expression (SLC22A7 gene expression): down regulated
- CYP2E1 gene expression, decreased to x-fold of control (CYP2E1 gene expression): ≤ 0.2 fold
- CYP2C19 gene expression, induction (CYP2C19 gene expression): up to 1.5 fold
- induction of CYP3A4 activity (CYP3A4 [5]; hepatocytes): induced
- CYP2C8 gene expression, decreased to x-fold of control (CYP2C8 gene expression): up to 0.3 fold
- SLCO1B1 gene expression, induction (SLCO1B1 gene expression): up to 2.9 fold
- protein expression of CYP3A4 (Western blot) (CYP3A4 [6]): induced
- UGT1A1 gene expression, induction (UGT1A1 gene expression): 1.8 fold
- CYP3A4 gene expression, induction (CYP3A4 gene expression; human, hepatocytes): ≤ 9 fold
